# Data taken from patent US10865208B2, “ATG7 inhibitors and the uses thereof” (Millennium Pharmaceuticals, Inc., priority 2016, dated 2020).
# Target: recombinant human His-ATG7 enzyme (Homo sapiens (Human), UniProt O95352)
# Assay: ATG7 Enzyme Assay (HTRF/FRET, ATG3-GST and Flag-Gabarap)
# Format: biochemical
# Conditions: for inhibition at 0.123 µM: Concentration 0.123 μM
# Method in brief: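 HTRF read-out after 2 h at 24° C, using Eu-cryptate anti-Flag and XL-APC anti-GST antibodies in an EDTA stop buffer. The preceding 105 min, 24° C reaction (pH 7.5) held 10 μM ATP, 5 nM each ATG3-GST and Flag-Gabarap, and 0.15 nM human His-ATG7. Values are IC50 or percent inhibition at one concentration.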
# [1] = Concentration 0.111 μM, read-out: Percent Inhibition
# Sequence of recombinant human His-ATG7 enzyme (O95352 whole entry): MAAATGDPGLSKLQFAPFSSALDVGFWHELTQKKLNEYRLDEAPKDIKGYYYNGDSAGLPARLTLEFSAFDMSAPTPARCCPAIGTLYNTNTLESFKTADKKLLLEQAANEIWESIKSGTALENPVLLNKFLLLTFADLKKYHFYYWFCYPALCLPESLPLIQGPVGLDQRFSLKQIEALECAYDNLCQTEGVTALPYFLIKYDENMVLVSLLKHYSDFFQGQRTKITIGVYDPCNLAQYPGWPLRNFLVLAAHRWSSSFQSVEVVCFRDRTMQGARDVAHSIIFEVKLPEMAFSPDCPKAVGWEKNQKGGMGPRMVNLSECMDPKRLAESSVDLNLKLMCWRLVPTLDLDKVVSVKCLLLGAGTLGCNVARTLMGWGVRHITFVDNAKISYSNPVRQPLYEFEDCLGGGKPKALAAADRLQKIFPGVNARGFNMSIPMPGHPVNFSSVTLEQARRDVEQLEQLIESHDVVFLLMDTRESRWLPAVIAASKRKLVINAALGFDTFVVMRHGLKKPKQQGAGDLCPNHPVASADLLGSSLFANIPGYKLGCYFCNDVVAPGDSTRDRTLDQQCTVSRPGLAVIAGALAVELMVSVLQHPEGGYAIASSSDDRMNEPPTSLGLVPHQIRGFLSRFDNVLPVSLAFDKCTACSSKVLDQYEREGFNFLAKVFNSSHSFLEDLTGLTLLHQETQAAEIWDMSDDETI
IC50 [nM],"inhibition at 0.069 µM (Concentration 0.069 μM, read-out: Percent Inhibition) [%]",inhibition at 0.111 µM [1] [%],inhibition at 0.123 µM (read-out: Percent Inhibition) [%],Percent Inhibition (Concentration 0.111 μM) [%],SMILES
100 to 500,16,,,,"Nc1ncnc2c1cnn2[C@@H]1O[C@H](COS(N)(=O)=O)[C@@H](O)[C@H]1O [Compound I-48, [(2R,3S,4R,5R)-5-(4-amino-1H-pyrazolo[3,4-d]pyrimidin-1-yl)-3,4-dihydroxytetrahydrofuran-2-yl]methyl sulfamate]"
100 to 500,,46,,,"CCC(CC)Sc1nn([C@@H]2O[C@H](COS(N)(=O)=O)[C@@H](O)[C@@H]2F)c2ncnc(N)c12 [Compound I-120, {(2R,3R,4S,5R)-5-[4-amino-3-(pentan-3-ylsulfanyl)-1H-pyrazolo[3,4-d]pyrimidin-1-yl]-4-fluoro-3-hydroxytetrahydrofuran-2-yl}methyl sulfamate]"
100 to 500,,38,,,"CCN(CC)CCSc1nn([C@@H]2O[C@H](COS(N)(=O)=O)[C@@H](O)[C@@H]2F)c2ncnc(N)c12 [Compound I-104, [(2R,3R,4S,5R)-5-(4-amino-3-{[2-(diethylamino)ethyl]sulfanyl}-1H-pyrazolo[3,4-d]pyrimidin-1-yl)-4-fluoro-3-hydroxytetrahydrofuran-2-yl]methyl sulfamate]"
50 to 100,,65,,,"Nc1ncnc2c1c(SCc1ccccn1)nn2[C@@H]1O[C@H](COS(N)(=O)=O)[C@@H](O)[C@@H]1F [Compound I-119, [(2R,3R,4S,5R)-5-{4-amino-3-[(pyridin-2-ylmethyl)sulfanyl]-1H-pyrazolo[3,4-d]pyrimidin-1-yl}-4-fluoro-3-hydroxytetrahydrofuran-2-yl]methyl sulfamate]"
20 to 50,,74,,,"COc1ccc(Sc2nn([C@H]3C[C@H](O)[C@@H](COS(N)(=O)=O)O3)c3ncnc(N)c23)c(F)c1 [Compound I-178, [(2R,3S,5R)-5-{4-amino-3-[(2-fluoro-4-methoxyphenyl)sulfanyl]-1H-pyrazolo[3,4-d]pyrimidin-1-yl}-3-hydroxytetrahydrofuran-2-yl]methyl sulfamate]"
50 to 100,,56,,,"Nc1ncnc2c1c(Sc1ccc(F)cc1)nn2[C@H]1C[C@H](O)[C@@H](COS(N)(=O)=O)O1 [Compound I-187, [(2R,3S,5R)-5-{4-amino-3-[(4-fluorophenyl)sulfanyl]-1H-pyrazolo[3,4-d]pyrimidin-1-yl}-3-hydroxytetrahydrofuran-2-yl]methyl sulfamate]"
100 to 500,,46,,,"Nc1ncnc2c1c(Sc1ccncc1)nn2[C@@H]1O[C@H](COS(N)(=O)=O)[C@@H](O)[C@@H]1F [Compound I-150, {(2R,3R,4S,5R)-5-[4-amino-3-(pyridin-4-ylsulfanyl)-1H-pyrazolo[3,4-d]pyrimidin-1-yl]-4-fluoro-3-hydroxytetrahydrofuran-2-yl}methyl Sulfamate]"
20 to 50,,69,,,"CCC(C)Sc1nn([C@@H]2O[C@H](COS(N)(=O)=O)[C@@H](O)[C@@H]2F)c2ncnc(N)c12 (mixture of isomers) [Compound I-136, [(2R,3R,4S,5R)-5-{4-amino-3-[(2R)-butan-2-ylsulfanyl]-1H-pyrazolo[3,4-d]pyrimidin-1-yl}-4-fluoro-3-hydroxytetrahydrofuran-2-yl]methyl sulfamate and [(2R,3R,4S,5R)-5-{4-amino-3-[(2S)-butan-2-ylsulfanyl]-1H-pyrazolo[3,4-d]pyrimidin-1-yl}-4-fluoro-3-hydroxytetrahydrofuran-2-yl]methyl sulfamate]"
100 to 500,,,45,,"COC(=O)c1nn([C@@H]2O[C@H](COS(N)(=O)=O)C(O)C2O)c2ncnc(N)c12 (stereo in doubt) [Compound I-20, methyl 4-amino-1-{(2R,3S,4R,5R)-3,4-dihydroxy-5-[(sulfamoyloxy)methyl]tetrahydrofuran-2-yl}-1H-pyrazolo[3,4-d]pyrimidine-3-carboxylate]"
100 to 500,,50,,,"Nc1ncnc2c1c(Sc1cccc(Cl)c1)nn2[C@H]1C[C@H](O)[C@@H](COS(N)(=O)=O)O1 [Compound I-179, [(2R,3S,5R)-5-{4-amino-3-[(3-chlorophenyl)sulfanyl]-1H-pyrazolo[3,4-d]pyrimidin-1-yl}-3-hydroxytetrahydrofuran-2-yl]methyl sulfamate]"
50 to 100,,,53,,"Nc1ncnc2c1c(C1CC1)nn2[C@@H]1O[C@H](COS(N)(=O)=O)[C@@H](O)[C@H]1O [Compound I-26, [(2R,3S,4R,5R)-5-(4-amino-3-cyclopropyl-1H-pyrazolo[3,4-d]pyrimidin-1-yl)-3,4-dihydroxytetrahydrofuran-2-yl]methyl Sulfamate]"
100 to 500,,45,,,"Nc1ncnc2c1c(Sc1ccccc1F)nn2[C@H]1C[C@H](O)[C@H](COS(N)(=O)=O)O1 [Compound I-215, [(2S,3S,5R)-5-{4-amino-3-[(2-fluorophenyl)sulfanyl]-1H-pyrazolo[3,4-d]pyrimidin-1-yl}-3-hydroxytetrahydrofuran-2-yl]methyl sulfamate]"
100 to 500,,,47,,"CC(C)Sc1nn([C@@H]2O[C@@H](COS(N)(=O)=O)[C@@H](O)[C@H]2O)c2ncnc(N)c12 [Compound I-95, {(2S,3S,4R,5R)-5-[4-amino-3-(isopropylsulfanyl)-1H-pyrazolo[3,4-d]pyrimidin-1-yl]-3,4-dihydroxytetrahydrofuran-2-yl}methyl Sulfamate]"
20 to 50,,75,,,CC1CC1CSc1nn([C@@H]2O[C@H](COS(N)(=O)=O)[C@@H](O)[C@@H]2F)c2ncnc(N)c12 (stereo partly drawn) [Compound I-140]
20 to 50,,,75,,"Nc1ncnc2c1c(SCc1ccccn1)nn2[C@@H]1O[C@H](COS(N)(=O)=O)[C@@H](O)[C@H]1O [Compound I-59, [(2R,3S,4R,5R)-5-{4-amino-3-[(pyridin-2-ylmethyl)sulfanyl]-1H-pyrazolo[3,4-d]pyrimidin-1-yl}-3,4-dihydroxytetrahydrofuran-2-yl]methyl sulfamate]"
50 to 100,,59,,,"Nc1ncnc2c1c(Sc1ccc(Cl)cn1)nn2[C@H]1C[C@H](O)[C@H](COS(N)(=O)=O)O1 [Compound I-222, [(2S,3S,5R)-5-{4-amino-3-[(5-chloropyridin-2-yl)sulfanyl]-1H-pyrazolo[3,4-d]pyrimidin-1-yl}-3-hydroxytetrahydrofuran-2-yl]methyl sulfamate]"
100 to 500,,46,,,"CCSc1nn([C@H]2C[C@H](O)[C@H](COS(N)(=O)=O)O2)c2ncnc(N)c12 [Compound I-213, {(2S,3S,5R)-5-[4-amino-3-(ethylsulfanyl)-1H-pyrazolo[3,4-d]pyrimidin-1-yl]-3-hydroxytetrahydrofuran-2-yl}methyl sulfamate]"
50 to 100,,,,64,"Cc1ccc(Sc2nn([C@H]3C[C@H](O)C(COS(N)(=O)=O)O3)c3ncnc(N)c23)c(F)c1 (stereo in doubt) [Compound I-211, [(2S,3S,5R)-5-{4-amino-3-[(2-fluoro-4-methylphenyl)sulfanyl]-1H-pyrazolo[3,4-d]pyrimidin-1-yl}-3-hydroxytetrahydrofuran-2-yl]methyl Sulfamate]"
20 to 50,,,68,,"Nc1ncnc2c1c(Sc1ccncc1)nn2[C@@H]1O[C@H](COS(N)(=O)=O)[C@@H](O)[C@H]1O [Compound I-66, {(2R,3S,4R,5R)-5-[4-amino-3-(pyridin-4-ylsulfanyl)-1H-pyrazolo[3,4-d]pyrimidin-1-yl]-3,4-dihydroxytetrahydrofuran-2-yl}methyl sulfamate]"
20 to 50,,81,,,"COc1ccc(F)c(Sc2nn([C@H]3C[C@H](O)[C@@H](COS(N)(=O)=O)O3)c3ncnc(N)c23)c1 [Compound I-173, [(2R,3S,5R)-5-{4-amino-3-[(2-fluoro-5-methoxyphenyl)sulfanyl]-1H-pyrazolo[3,4-d]pyrimidin-1-yl}-3-hydroxytetrahydrofuran-2-yl]methyl sulfamate]"
20 to 50,,76,,,"Nc1ncnc2c1c(SCC1CC1(F)F)nn2[C@@H]1O[C@H](COS(N)(=O)=O)[C@@H](O)[C@@H]1F (mixture of isomers) [Compound I-131, {(2R,3R,4S,5R)-5-[4-amino-3-({[(1R)-2,2-difluorocyclopropyl]methyl}sulfanyl)-1H-pyrazolo[3,4-d]pyrimidin-1-yl]-4-fluoro-3-hydroxytetrahydrofuran-2-yl}methyl sulfamate and {(2R,3R,4S,5R)-5-[4-amino-3-({[(1S)-2,2-difluorocyclopropyl]methyl}sulfanyl)-1H-pyrazolo[3,4-d]pyrimidin-1-yl]-4-fluoro-3-hydroxytetrahydrofuran-2-yl}methyl sulfamate]"
20 to 50,,,85,,"CC(C)CSc1nn([C@@H]2O[C@H](COS(N)(=O)=O)[C@@H](O)[C@H]2O)c2ncnc(N)c12 [Compound I-77, {(2R,3S,4R,5R)-5-[4-amino-3-(isobutylsulfanyl)-1H-pyrazolo[3,4-d]pyrimidin-1-yl]-3,4-dihydroxytetrahydrofuran-2-yl}methyl sulfamate]"
50 to 100,,65,,,"COc1ccc(Sc2nn([C@H]3C[C@H](O)[C@@H](COS(N)(=O)=O)O3)c3ncnc(N)c23)cc1OC [Compound I-207, [(2R,3S,5R)-5-{4-amino-3-[(3,4-dimethoxyphenyl)sulfanyl]-1H-pyrazolo[3,4-d]pyrimidin-1-yl}-3-hydroxytetrahydrofuran-2-yl]methyl sulfamate]"
20 to 50,,,81,,"CC(C)Sc1nn([C@H]2C[C@H](O)[C@@H](COS(N)(=O)=O)O2)c2ncnc(N)c12 [Compound I-181, {(2R,3S,5R)-5-[4-amino-3-(isopropylsulfanyl)-1H-pyrazolo[3,4-d]pyrimidin-1-yl]-3-hydroxytetrahydrofuran-2-yl}methyl Sulfamate]"
